Data as given in patent US5500410A, “Substituted alkylamide derivatives of teicoplanin” (Gruppo Lepetit S.p.A., priority 1989, dated 1996).

Columns and labels:
[1] = tested on: E. coli; assay: Mice septicemically infected with E. coli; assay type: in vivo; details: E. coli septicemia
[2] = tested on: Staphylococcus epidermidis ATCC 12228; assay: In vitro MIC, two-fold dilution in microtiter; assay type: cell-based; details: 18-24 h at 37° C., inoculum about 10^4 CFU/ml
Protocol: (§1) Broth cultures are diluted enough so that the final inecuium is about 10^4 colony forming units/ml (CFU/ml).

[3] = tested on: Streptococcus faecalis ATCC 7080; assay: In vitro MIC, two-fold dilution in microtiter; assay type: cell-based; details: 18-24 h at 37° C., inoculum about 10^4 CFU/ml
Protocol: as §1

[4] = tested on: Streptococcus pyogenes C 203; assay: In vitro MIC, two-fold dilution in microtiter; assay type: cell-based; details: 18-24 h at 37° C., inoculum about 10^4 CFU/ml
Protocol: as §1

[5] = tested on: Proteus vulgaris X19H ATCC 881; assay: In vitro MIC, two-fold dilution in microtiter; assay type: cell-based; details: 18-24 h at 37° C., inoculum about 10^4 CFU/ml
Protocol: as §1

[6] = tested on: Staphylococcus aureus TOUR; assay: In vitro MIC, two-fold dilution in microtiter; assay type: cell-based; details: 18-24 h at 37° C., inoculum about 10^4 CFU/ml
Protocol: as §1

[7] = tested on: Streptococcus pneumoniae UC 41; assay: In vitro MIC, two-fold dilution in microtiter; assay type: cell-based; details: 18-24 h at 37° C., inoculum about 10^4 CFU/ml
Protocol: as §1

[8] = tested on: Escherichia coli SKF 12140; assay: In vitro MIC, two-fold dilution in microtiter; assay type: cell-based; details: 18-24 h at 37° C., inoculum about 10^4 CFU/ml
Protocol: as §1

[9] = tested on: Pseudomonas aeruginosa ATCC 10145; assay: In vitro MIC, two-fold dilution in microtiter; assay type: cell-based; details: 18-24 h at 37° C., inoculum about 10^4 CFU/ml
Protocol: as §1

[10] = tested on: Staphylococcus haemolyticus L 602; assay: In vitro MIC, two-fold dilution in microtiter; assay type: cell-based; details: 18-24 h at 37° C., inoculum about 10^4 CFU/ml
Protocol: as §1

[11] = tested on: Pseudomonas aeruginosa Strain No. L 1348; assay: MIC against multi-resistant clinical isolates of Pseudomonas aeruginosa; assay type: cell-based; details: multi-resistant clinical isolate
Protocol: as §1
(§2) The activity against some multi-resistant clinical isolates of Pseudomonas aeruginosa of compounds 22, 23, 25, 26, 27 and 29 is shown in Table II.

[12] = tested on: Pseudomonas aeruginosa Strain No. L 1498; assay: as above; assay type: cell-based; details: multi-resistant clinical isolate
Protocol: as §1, §2

[13] = tested on: Pseudomonas aeruginosa Strain No. L 1533; assay: as above; assay type: cell-based; details: multi-resistant clinical isolate
Protocol: as §1, §2

[14] = tested on: Pseudomonas aeruginosa Strain No. L 1138; assay: as above; assay type: cell-based; details: multi-resistant clinical isolate
Protocol: as §1, §2

Row | Compound | survivors/treated ([1]; i.v. administration, 40 mg/kg) | ED50 s.c. ([1]; s.c. administration) [mg/kg] | MIC Staphylococcus epidermidis ATCC 12228 [2] [microgram/ml] | MIC Streptococcus faecalis ATCC 7080 [3] [microgram/ml] | MIC Streptococcus pyogenes C 203 [4] [microgram/ml] | MIC Proteus vulgaris X19H ATCC 881 [5] [microgram/ml] | MIC Staphylococcus aureus TOUR [6] [microgram/ml] | MIC Streptococcus pneumoniae UC 41 [7] [microgram/ml] | MIC Escherichia coli SKF 12140 [8] [microgram/ml] | MIC Pseudomonas aeruginosa ATCC 10145 [9] [microgram/ml] | MIC Staphylococcus haemolyticus L 602 [10] [microgram/ml] | MIC Pseudomonas aeruginosa L 1348 [11] [microgram/ml] | MIC Pseudomonas aeruginosa L 1498 [12] [microgram/ml] | MIC Pseudomonas aeruginosa L 1533 [13] [microgram/ml] | MIC Pseudomonas aeruginosa L 1138 [14] [microgram/ml]
1 | NCCCN(CCCN)CCCNC(=O)C1NC(=O)C2NC(=O)C(NC(=O)C3NC(=O)C4NC(=O)C(Cc5ccc(c(Cl)c5)Oc5cc3cc(c5O)Oc3ccc(cc3Cl)C2O)NC(=O)C(N)c2ccc(O)c(c2)Oc2cc(O)cc4c2)c2ccc(O)c(c2)-c2c(O)cc(O)cc21 (stereo not drawn) [Compound 50] | 7/8 | ≤ 38 | 0.008 | 0.12 | 0.06 | 128 | 0.12 | 0.12 | 1 | 8 | 0.06 | – | – | – | –
2 | NCCCNCCNCCCNC(=O)C1NC(=O)C2NC(=O)C(NC(=O)C3NC(=O)C4NC(=O)C(Cc5ccc(c(Cl)c5)Oc5cc3cc(c5O)Oc3ccc(cc3Cl)C2O)NC(=O)C(N)c2ccc(O)c(c2)Oc2cc(O)cc4c2)c2ccc(O)c(c2)-c2c(O)cc(O)cc21 (stereo not drawn) [Compound 25] | – | – | 0.06 | 0.12 | 0.06 | 64 | 0.12 | 0.12 | 2 | 16 | 0.12 | 4 | 64 | 64 | 32
